The subject of test [1] is B. elkani SEMIA 587 and B. elkani SEMIA 5019. Put plainly: Liquid inoculant survivability in the presence of benzyl hemi-formal (Example 1). Type of test: cell-based, Bradyrhizobium elkani. The note with it: at the concentration tested; Table 2. The method, then:
(§1) The activity of two microbially stabilizing compounds, yeast extract and albumin, were tested for reducing the effects of the preservative benzyl hemi-formal (at a concentration reflecting that provided by the current recommendation for a commercial insecticide that includes that preservative).
(§2) Using conventional aseptic techniques, 10 ml of a commercial liquid inoculant containing B. elkani SEMIA 587 and B. elkani SEMIA 5019 (Nitragin Optimize II, commercially available from Novozymes) was transferred to a series of sterile test tubes, to which 0.7 ml of a 2% solution containing benzyl hemi-formal was added and, in the corresponding tubes, 0.3 g of Yeast extract (commercially available from Merck) or 0.3 g Albumin (commercially available from SIGMA) were incorporated. A control of bacterial survival consisting of the inoculants without a microbial stabilizing compound was tested for comparison.
(§3) The tubes were mixed using a vortex agitator, transferred to a 30° C. orbital shaker. After 20 minutes incubation (Time 0), 0.1 ml samples were taken, and conventionally diluted 1/10 in a series of tubes containing 0.9 ml of sterile saline solution (0.85% NaCl in distilled water). […] Colonies were counted after seven days incubation. The number of colony forming units per ml (CFU ml^−1) was calculated taking into account the plated dilutions and the plated volume. […]

The test system of test [2] is B. japonicum SEMIA 5079 and B. japonicum SEMIA 5080. Put plainly: Liquid inoculant survivability in the presence of benzyl hemi-formal (Example 4). The conditions noted are these: at the concentration tested; Table 8. The test is classed as cell-based, Bradyrhizobium japonicum. As to the method: as §1
as §2, with “japonicum” for “elkani”, “5079” for “587”, “5080” for “5019”, “CellTech HC,” for “Optimize II,”
as §3

Test [3] shares this test system. Put plainly: Liquid inoculant survivability in the presence of insecticide containing benzyl hemi-formal (Example 5). The note with it: Table 10. The test is classed as cell-based, Bradyrhizobium japonicum. As to the method: The general protocol described in Example 4 was modified to process larger samples. A commercial insecticide containing benzyl hemi-formal was tested at concentrations that would emulate the recommended doses both for the inoculants and the insecticide.
(§4) Sterile 250 ml erlenmeyers containing sterile magnetic stirrers were used instead of test tubes. The commercial insecticide was transferred to a series of erlenmeyers and the stated amounts of microbial stabilizing compounds (yeast extract and soy meal peptone from Merck and tryptophan from Ajinomoto) were premixed at 250 rpm for 6 hours.
To each of the corresponding erlenmeyer flasks, 30 ml of inoculant (as described in example 4) was added, mixed, and samples were obtained immediately and at 2 hr intervals. Samples were processed as described in Example 4.

Test [4] deals with B. elkani SEMIA 587 and B. elkani SEMIA 5019. Put plainly: Liquid inoculant survivability in the presence of insecticide containing benzyl hemi-formal (Example 2). Type of test: cell-based, Bradyrhizobium elkani. The conditions noted are these: Table 4. The method, then:
The general protocol described in Example 1 was modified to process larger samples. A commercial insecticide containing benzyl hemi-formal was tested at concentrations that would emulate the recommended doses both for the inoculants and the insecticide.
as §4
To each of the corresponding erlenmeyer flasks, 30 ml of the inoculants (as described in example 1) was added, mixed, and samples were obtained immediately and at 2 hr intervals. Samples were processed as described in Example 1.

For the compound albumin, the “Effect on the deleterious effects induced by benzyl hemi-formal (in words)” value in test [1] and in test [2] was “reduce the deleterious effects” each time.
Consider `N[C@@H](Cc1c[nH]c2ccccc12)C(=O)O` [tryptophan], for which the “Effect on the deleterious effects induced by benzyl hemi-formal containing agrochemical on a microbial population (in words)” value in test [3] and in test [4] was “reduce the deleterious effects” in each case.

These data come from US11369110B2, “Compositions and methods for enhancing microbial stability” (NOVOZYMES BIOAG A/S, priority 2013, dated 2022).
